{"source": "patent US7993756B2", "about": "“Long-chain quaternary ammonium compounds as wood treatment agents” (Viance, LLC, priority 2005, dated 2011)", "key": {"[1]": {"test_system": "Postia placenta", "test": "Standard soil-block decay test (AWPA Standard Test Method E-10)", "type": "cell-based", "conditions": "2HT at 0.8% in the treating solution", "from_the_text": "The vertical axis is percent weight loss of the wood blocks (negative numbers represent weight gain), and the horizontal axis is ACQ® wood preservative retention in the wood blocks expressed on a weight preservative/weight wood basis. […] The toxic threshold of ACQ® wood preservative against Postia placenta is estimated to be 0.7-0.8% in this test (FIG. 4)."}, "[2]": {"test_system": "soil-bed decay of Southern Pine Mini-Stakes", "test": "Accelerated Soil-bed Decay Test of Southern Pine Mini-Stakes (AWPA Standard Test Method E14)", "conditions": "addition of 0.8% 2HT; all three retention levels; after about 10 years exposure", "from_the_text": "A decay rating of 100 means no decay, and a rating of 0 indicates failure due to decay."}}}
{"substance": "dimethyl di(hydrogenated tallow) ammonium compound [2HT]", "values": [{"measurement": "effect on toxicity of ACQ wood preservative toward Postia placenta", "setting": "[1]", "result": "almost double"}, {"measurement": "effect on performance of ACQ wood preservative in soil-bed decay test", "setting": "[2]", "result": "improves the performance"}]}
